A short description of this series: Compound stability in human liver microsomes. Conditions: for half-life: pH 7.4, 37° C., NADPH, read-out: Human T1/2; for CLint scaled: pH 7.4, in vivo CLint extrapolated. Type of series: in vitro ADME.

Each structure is given as a SMILES string.

What is called CLint scaled is a measure of how fast metabolising enzymes remove a compound, apart from limits set by blood flow. For the compound `Cn1cc(Nc2ncc(Cl)c(NC3CCN(c4ccc(C#N)cn4)CC3)n2)cn1` [Ex. 1, 6-(4-((5-chloro-2-((1-methyl-1H-pyrazol-4-yl)amino)pyrimidin-4-yl)amino)piperidin-1-yl)nicotinonitrile], the half-life came to 40.8 min and the CLint scaled is 42.6 mL/min/kg.

`Cc1nn(C)cc1Nc1ncc(Cl)c(NC2CCN(c3ccc(C#N)nn3)CC2)n1` [Ex. 11, 6-(4-((5-chloro-2-((1,3-dimethyl-1H-pyrazol-4-yl)amino)pyrimidin-4-yl)amino)piperidin-1-yl)pyridazine-3-carbonitrile]: the half-life came to 13.1 min and the CLint scaled is 133 mL/min/kg.

Regarding `Cc1c2ccc(Nc3ncc(Cl)c(NC4CCN(c5ccc(C#N)cn5)CC4)n3)cc2nn1C` [Ex. 4], the half-life was determined as 13.2 min and the CLint scaled is 131 mL/min/kg.

For the compound `Cc1c2ccc(Nc3ncc(Cl)c(NC4CCN(c5ccc(C#N)nn5)CC4)n3)cc2nn1C` [Ex. 12, 6-(4-((5-chloro-2-((2,3-dimethyl-2H-indazol-6-yl)amino)pyrimidin-4-yl)amino)piperidin-1-yl)pyridazine-3-carbonitrile], the half-life was determined as 25.3 min and the CLint scaled is 68.8 mL/min/kg.

For `CN(c1nc(Nc2cnn(C)c2)ncc1Cl)C1CCN(c2ccc(C#N)cn2)CC1` [Ex. 5, 6-(4-((5-chloro-2-((1-methyl-1H-pyrazol-4-yl)amino)pyrimidin-4-yl) (methyl)amino)piperidin-1-yl)nicotinonitrile], the half-life is 22.9 min and the CLint scaled was 75.7 mL/min/kg.

In the case of `Cc1nn(C)cc1Nc1ncc(Cl)c(NC2CCN(c3ccc(C#N)cn3)CC2)n1` [Ex. 10, 6-(4-((5-chloro-2-((1,3-dimethyl-1H-pyrazol-4-yl)amino)pyrimidin-4-yl)amino)piperidin-1-yl)nicotinonitrile], the half-life was 5.51 min and the CLint scaled is 315 mL/min/kg.

On to `Cc1cc(Nc2ncc(Cl)c(NC3CCN(c4ccc(C#N)nn4)CC3)n2)nn1C` [Ex. 13, 6-(4-((5-chloro-2-((1,5-dimethyl-1H-pyrazol-3-yl)amino)pyrimidin-4-yl)amino)piperidin-1-yl)pyridazine-3-carbonitrile], for which the half-life was 68.2 min and the CLint scaled is 25.5 mL/min/kg.

Values taken from patent publication US10059689B2, “Substituted heteroaryl compounds and methods of use” (Sunshine Lake Pharma Co., Ltd., priority 2014, dated 2018).
